These results are taken from patent publication US6710048B2, “Pyrazine derivatives as modulators of tyrosine kinases” (Ortho-McNeil Pharmaceutical, Inc., priority 2000, dated 2004).

T1 sequence (O08775 786-1343): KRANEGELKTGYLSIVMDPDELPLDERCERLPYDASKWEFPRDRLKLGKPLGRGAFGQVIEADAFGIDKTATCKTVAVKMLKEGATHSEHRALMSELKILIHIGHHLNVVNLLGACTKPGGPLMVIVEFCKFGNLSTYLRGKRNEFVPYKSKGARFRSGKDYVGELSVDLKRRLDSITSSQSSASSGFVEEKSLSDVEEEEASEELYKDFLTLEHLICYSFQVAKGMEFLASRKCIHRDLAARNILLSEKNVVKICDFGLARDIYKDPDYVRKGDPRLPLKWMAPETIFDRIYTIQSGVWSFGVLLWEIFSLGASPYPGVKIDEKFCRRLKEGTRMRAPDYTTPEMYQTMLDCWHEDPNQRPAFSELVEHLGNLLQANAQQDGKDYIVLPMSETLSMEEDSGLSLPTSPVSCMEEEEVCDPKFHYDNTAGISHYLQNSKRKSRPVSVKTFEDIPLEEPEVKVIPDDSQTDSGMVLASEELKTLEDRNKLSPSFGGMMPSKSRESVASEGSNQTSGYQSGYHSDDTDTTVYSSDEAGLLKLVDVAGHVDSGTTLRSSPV

The first experiment addresses T1, VEGF-R (vascular endothelial growth factor receptor-2) (Rattus norvegicus, UniProt O08775).
T1 construct: polyhistidine (6xHis) (N)
As to the kind of experiment: VEGF-R screening assay (33P FlashPlate kinase assay). The experiment is classed as biochemical. The settings on record: Table 4 kinase selectivity; read-out: IC50, Assay 1 VEGF-R.
Broadly, the IC50 is the concentration that gives 50% inhibition. As for `O=C(NCCCO)c1cncc(-c2cncc(Nc3cccc(Cl)c3)n2)c1` [Cmd 39], the IC50 came out at 2500 nM.

On to `Clc1cccc(Nc2cncc(-c3cncc(NCCCc4cccnc4)c3)n2)c1` [Cmd 72], for which the IC50 was 89 nM.

Consider `Clc1cccc(Nc2cncc(-c3cncc(NCCCn4cncn4)c3)n2)c1` [Cmd 76], for which the IC50 is 52 nM.

As for `OCCCCNc1cncc(-c2cncc(Nc3cccc(Cl)c3)n2)c1` [Cmd 32], the IC50 came out at 59 nM.

`OCCCNc1cncc(-c2cncc(Nc3cccc(Cl)c3)n2)c1` [Cmd 4]: the IC50 came to 42 nM.

Take `Clc1cccc(Nc2cncc(-c3cncc(NCCCc4ccncc4)c3)n2)c1` [Cmd 71]: the IC50 came to 52 nM.

Consider `Clc1cccc(Nc2cncc(-c3cncc(NCCCn4cccn4)c3)n2)c1` [Cmd 75], for which the 50% inhibitory concentration (IC50) is 79 nM.

For the molecule `Clc1cccc(Nc2cncc(-c3cncc(NCCCN4CCCCC4)c3)n2)c1` [Cmd 73], the IC50 was determined as 105 nM.

As to `CN(C)CCCNc1cncc(-c2cncc(Nc3cccc(Cl)c3)n2)c1` [Cmd 35], the IC50 came out at 94 nM.

On to `CN(C)CCNc1cncc(-c2cncc(Nc3cccc(Cl)c3)n2)c1` [Cmd 33, N′-[5-[6-[(3-chlorophenyl)amino]pyrazinyl]-3-pyridinyl]-N^2,N^2-dimethyl-1,2-ethanediamine], for which the IC50 worked out at 70 nM.

Still in this experiment, the particulars now being: Tables 1-3; >10 or >100 = no 50% inhibition at highest dose tested; read-out: VEGF-R IC50.
As to `O=C(NCCCO)c1cncc(-c2cncc(Nc3cccc(Cl)c3)n2)c1` [Cmd 39], the IC50 was 2500 nM.

In the case of `Clc1cccc(Nc2cncc(-c3cncc(NCCCc4cccnc4)c3)n2)c1` [Cmd 72], the concentration for half-maximal inhibition (IC50) was 89 nM.

In the case of `Clc1cccc(Nc2cncc(-c3cncc(NCCCn4cncn4)c3)n2)c1` [Cmd 76], the IC50 turned out to be 52 nM.

With `OCCCCNc1cncc(-c2cncc(Nc3cccc(Cl)c3)n2)c1` [Cmd 32], the IC50 stood at 60 nM.

For the molecule `OCCCNc1cncc(-c2cncc(Nc3cccc(Cl)c3)n2)c1` [Cmd 4], the IC50 was 80 nM.

As for `Clc1cccc(Nc2cncc(-c3cncc(NCCCc4ccncc4)c3)n2)c1` [Cmd 71], the IC50 was found to be 52 nM.

For `Clc1cccc(Nc2cncc(-c3cncc(NCCCn4cccn4)c3)n2)c1` [Cmd 75], the IC50 worked out at 79 nM.

Regarding `Clc1cccc(Nc2cncc(-c3cncc(NCCCN4CCCCC4)c3)n2)c1` [Cmd 73], the IC50 stood at 105 nM.

`CN(C)CCCNc1cncc(-c2cncc(Nc3cccc(Cl)c3)n2)c1` [Cmd 35]: the IC50 was 90 nM.

Consider `CN(C)CCNc1cncc(-c2cncc(Nc3cccc(Cl)c3)n2)c1` [Cmd 33, N′-[5-[6-[(3-chlorophenyl)amino]pyrazinyl]-3-pyridinyl]-N^2,N^2-dimethyl-1,2-ethanediamine], for which the IC50 turned out to be 70 nM.
